Data: ChEMBL document CHEMBL5465560, “Selectivity Literature for EUbOPEN Chemogenomic Library” (2024)

Columns and labels:
[1] = target: Serine/threonine-protein kinase SIK3 (Homo sapiens) (UniProt Q9Y2K2); assay: Selectivity interaction (KinomeScan (DiscoverX)) EUB0000695a SIK3; conditions: at 100 nM
[2] = target: T1, MAP kinase-activated protein kinase 5 (Homo sapiens) (UniProt Q8IW41); assay: Selectivity interaction (Kinase panel (Z-LYTE Assay)) EUB0001632a MAPKAPK5; conditions: at 10 µM
T1 sequence (whole entry): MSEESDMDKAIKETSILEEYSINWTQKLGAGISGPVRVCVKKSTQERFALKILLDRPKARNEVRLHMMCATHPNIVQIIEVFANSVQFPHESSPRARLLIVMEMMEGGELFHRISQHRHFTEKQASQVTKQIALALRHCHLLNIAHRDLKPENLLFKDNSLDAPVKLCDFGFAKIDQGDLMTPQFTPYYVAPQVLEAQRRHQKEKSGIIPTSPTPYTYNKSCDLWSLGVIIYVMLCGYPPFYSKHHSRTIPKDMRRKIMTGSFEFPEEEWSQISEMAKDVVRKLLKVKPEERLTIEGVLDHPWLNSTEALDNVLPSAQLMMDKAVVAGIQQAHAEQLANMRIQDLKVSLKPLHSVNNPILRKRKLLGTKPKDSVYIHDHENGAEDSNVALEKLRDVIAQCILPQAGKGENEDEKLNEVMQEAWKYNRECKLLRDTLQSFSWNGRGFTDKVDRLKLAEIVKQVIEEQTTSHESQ

[3] = target: Tyrosine-protein kinase Srms (Homo sapiens) (UniProt Q9H3Y6); conditions: at 10 µM
[4] = target: RAF proto-oncogene serine/threonine-protein kinase (Homo sapiens) (UniProt P04049); assay: Selectivity interaction (Kinase screening (Upstate/Millipore)) EUB0000604a RAF1
[5] = target: Calcium/calmodulin-dependent protein kinase type II subunit alpha (Homo sapiens, UniProt Q9UQM7); assay: Selectivity interaction (Kinase screening (Upstate/Millipore)) EUB0000604a CAMK2A
[6] = target: DNA (cytosine-5)-methyltransferase 3B (Homo sapiens) (UniProt Q9UBC3); assay: Selectivity interaction (Methyltransferase screen (Scintillation proximity assays)) EUB0000255b DNMT3B
[7] = target: Tyrosine-protein kinase receptor Tie-1 (Homo sapiens) (UniProt P35590); assay: Selectivity interaction (KinomeScan (DiscoverX)) EUB0000607a TIE1; conditions: at 10 µM
[8] = target: T2, Serine/threonine-protein kinase Nek5 (Homo sapiens) (UniProt Q6P3R8); conditions: at 10 µM
T2 sequence (whole entry): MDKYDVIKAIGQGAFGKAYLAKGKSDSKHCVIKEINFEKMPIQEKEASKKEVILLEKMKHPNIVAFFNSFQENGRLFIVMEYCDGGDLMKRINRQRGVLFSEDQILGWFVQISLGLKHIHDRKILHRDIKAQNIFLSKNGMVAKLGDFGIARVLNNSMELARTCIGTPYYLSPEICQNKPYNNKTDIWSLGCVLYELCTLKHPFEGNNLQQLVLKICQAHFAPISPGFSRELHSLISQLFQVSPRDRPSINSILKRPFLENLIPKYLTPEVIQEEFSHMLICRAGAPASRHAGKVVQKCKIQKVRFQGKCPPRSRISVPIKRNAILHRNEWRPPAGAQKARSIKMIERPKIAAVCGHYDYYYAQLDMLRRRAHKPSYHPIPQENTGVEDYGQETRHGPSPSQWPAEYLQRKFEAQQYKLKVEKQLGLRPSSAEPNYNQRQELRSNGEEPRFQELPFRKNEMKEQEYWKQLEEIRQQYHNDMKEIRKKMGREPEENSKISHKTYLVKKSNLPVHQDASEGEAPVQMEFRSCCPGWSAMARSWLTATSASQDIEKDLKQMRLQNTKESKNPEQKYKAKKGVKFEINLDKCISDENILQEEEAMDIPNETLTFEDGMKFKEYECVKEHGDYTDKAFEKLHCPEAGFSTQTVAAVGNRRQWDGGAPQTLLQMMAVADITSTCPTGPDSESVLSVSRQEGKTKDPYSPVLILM

[9] = target: Ephrin type-A receptor 2 (Homo sapiens) (UniProt P29317); assay: Selectivity interaction (KinomeScan (DiscoverX)) EUB0000092b EPHA2; conditions: at 10 µM
[10] = target: STE20-like serine/threonine-protein kinase (Homo sapiens, UniProt Q9H2G2); assay: Selectivity interaction (Ambit KINOMEscan and KiNATiv profiling in Jurkat cells) EUB0000090b SLK; format: cell-based; conditions: at 1 µM
STE20-like serine/threonine-protein kinase, sequence (Q9H2G2 whole entry, looked up): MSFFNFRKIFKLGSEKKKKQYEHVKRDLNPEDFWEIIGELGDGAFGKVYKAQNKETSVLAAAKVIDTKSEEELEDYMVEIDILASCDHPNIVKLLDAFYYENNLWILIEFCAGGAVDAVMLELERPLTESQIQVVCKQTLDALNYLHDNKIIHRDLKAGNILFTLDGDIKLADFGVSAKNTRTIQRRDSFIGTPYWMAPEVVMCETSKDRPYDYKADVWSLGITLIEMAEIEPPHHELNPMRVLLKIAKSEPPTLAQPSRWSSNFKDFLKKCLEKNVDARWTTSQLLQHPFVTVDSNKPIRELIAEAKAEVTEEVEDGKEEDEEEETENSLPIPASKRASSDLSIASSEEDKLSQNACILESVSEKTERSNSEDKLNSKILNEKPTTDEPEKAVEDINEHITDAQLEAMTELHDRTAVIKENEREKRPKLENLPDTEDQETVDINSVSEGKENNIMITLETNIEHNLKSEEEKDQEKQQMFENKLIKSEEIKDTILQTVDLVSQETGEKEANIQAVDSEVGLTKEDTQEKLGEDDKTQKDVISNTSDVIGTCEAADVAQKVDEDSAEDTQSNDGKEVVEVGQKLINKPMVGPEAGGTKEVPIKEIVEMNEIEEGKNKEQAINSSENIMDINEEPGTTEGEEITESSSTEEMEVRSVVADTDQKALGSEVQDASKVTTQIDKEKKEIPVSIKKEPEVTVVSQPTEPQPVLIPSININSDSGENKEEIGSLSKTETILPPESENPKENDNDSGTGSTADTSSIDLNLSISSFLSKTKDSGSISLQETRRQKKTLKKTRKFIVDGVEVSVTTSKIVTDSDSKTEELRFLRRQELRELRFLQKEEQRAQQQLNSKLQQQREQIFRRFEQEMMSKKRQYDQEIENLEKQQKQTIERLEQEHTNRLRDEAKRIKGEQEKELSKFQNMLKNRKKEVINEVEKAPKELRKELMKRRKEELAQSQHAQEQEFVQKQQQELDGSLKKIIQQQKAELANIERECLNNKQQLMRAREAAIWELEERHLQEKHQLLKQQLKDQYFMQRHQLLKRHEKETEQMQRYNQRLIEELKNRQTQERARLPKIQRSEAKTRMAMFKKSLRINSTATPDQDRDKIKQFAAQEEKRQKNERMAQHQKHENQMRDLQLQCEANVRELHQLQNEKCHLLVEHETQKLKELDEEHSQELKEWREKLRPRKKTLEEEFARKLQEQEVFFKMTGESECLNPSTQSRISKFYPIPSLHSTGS

RAF proto-oncogene serine/threonine-protein kinase (Homo sapiens), sequence (P04049 whole entry): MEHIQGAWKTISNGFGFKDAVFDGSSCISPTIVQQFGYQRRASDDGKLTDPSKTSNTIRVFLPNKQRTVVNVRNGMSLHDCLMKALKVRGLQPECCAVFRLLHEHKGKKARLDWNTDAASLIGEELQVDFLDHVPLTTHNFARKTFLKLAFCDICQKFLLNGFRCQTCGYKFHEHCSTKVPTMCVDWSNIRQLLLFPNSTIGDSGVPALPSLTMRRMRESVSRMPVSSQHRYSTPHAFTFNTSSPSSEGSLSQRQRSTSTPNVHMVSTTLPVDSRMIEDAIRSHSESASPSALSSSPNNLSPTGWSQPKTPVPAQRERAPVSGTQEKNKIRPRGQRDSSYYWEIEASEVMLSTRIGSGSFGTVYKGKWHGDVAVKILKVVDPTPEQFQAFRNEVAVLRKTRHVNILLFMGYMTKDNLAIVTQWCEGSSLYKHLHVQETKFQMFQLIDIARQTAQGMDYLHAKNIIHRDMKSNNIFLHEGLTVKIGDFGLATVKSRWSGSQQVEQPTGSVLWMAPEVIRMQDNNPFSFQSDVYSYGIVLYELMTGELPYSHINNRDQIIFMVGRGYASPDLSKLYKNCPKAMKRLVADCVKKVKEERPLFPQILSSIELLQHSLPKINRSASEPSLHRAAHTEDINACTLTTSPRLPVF
Tyrosine-protein kinase receptor Tie-1 (Homo sapiens), sequence (P35590 whole entry): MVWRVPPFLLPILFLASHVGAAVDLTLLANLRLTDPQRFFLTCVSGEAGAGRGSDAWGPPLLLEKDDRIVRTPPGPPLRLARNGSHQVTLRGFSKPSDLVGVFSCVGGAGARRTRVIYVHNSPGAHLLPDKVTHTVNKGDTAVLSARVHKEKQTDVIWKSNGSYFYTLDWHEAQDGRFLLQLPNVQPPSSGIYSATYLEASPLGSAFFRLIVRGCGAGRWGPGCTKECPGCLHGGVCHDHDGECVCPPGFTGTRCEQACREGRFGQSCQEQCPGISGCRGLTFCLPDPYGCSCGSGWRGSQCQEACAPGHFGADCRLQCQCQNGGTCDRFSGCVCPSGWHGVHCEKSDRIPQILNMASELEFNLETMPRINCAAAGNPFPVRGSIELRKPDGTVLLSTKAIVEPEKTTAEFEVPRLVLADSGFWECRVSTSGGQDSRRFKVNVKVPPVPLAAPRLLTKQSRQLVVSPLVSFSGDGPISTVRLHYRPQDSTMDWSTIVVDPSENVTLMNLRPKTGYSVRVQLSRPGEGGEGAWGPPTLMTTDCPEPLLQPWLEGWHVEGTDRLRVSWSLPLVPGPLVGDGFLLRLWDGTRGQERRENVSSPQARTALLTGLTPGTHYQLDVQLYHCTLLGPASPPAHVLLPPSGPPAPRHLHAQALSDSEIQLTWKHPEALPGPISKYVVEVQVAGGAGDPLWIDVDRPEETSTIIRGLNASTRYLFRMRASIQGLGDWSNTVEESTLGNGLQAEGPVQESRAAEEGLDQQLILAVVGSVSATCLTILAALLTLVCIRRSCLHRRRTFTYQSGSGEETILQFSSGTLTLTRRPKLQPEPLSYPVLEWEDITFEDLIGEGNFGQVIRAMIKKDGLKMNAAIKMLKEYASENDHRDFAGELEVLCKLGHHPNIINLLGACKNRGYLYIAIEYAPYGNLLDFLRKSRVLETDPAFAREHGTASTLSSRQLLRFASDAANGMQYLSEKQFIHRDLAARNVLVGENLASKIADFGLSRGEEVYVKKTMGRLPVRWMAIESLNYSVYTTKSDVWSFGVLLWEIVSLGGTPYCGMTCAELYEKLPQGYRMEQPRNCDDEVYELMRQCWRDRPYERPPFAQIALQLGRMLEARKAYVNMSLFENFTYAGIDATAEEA
Serine/threonine-protein kinase SIK3 (Homo sapiens), sequence (Q9Y2K2 whole entry, looked up): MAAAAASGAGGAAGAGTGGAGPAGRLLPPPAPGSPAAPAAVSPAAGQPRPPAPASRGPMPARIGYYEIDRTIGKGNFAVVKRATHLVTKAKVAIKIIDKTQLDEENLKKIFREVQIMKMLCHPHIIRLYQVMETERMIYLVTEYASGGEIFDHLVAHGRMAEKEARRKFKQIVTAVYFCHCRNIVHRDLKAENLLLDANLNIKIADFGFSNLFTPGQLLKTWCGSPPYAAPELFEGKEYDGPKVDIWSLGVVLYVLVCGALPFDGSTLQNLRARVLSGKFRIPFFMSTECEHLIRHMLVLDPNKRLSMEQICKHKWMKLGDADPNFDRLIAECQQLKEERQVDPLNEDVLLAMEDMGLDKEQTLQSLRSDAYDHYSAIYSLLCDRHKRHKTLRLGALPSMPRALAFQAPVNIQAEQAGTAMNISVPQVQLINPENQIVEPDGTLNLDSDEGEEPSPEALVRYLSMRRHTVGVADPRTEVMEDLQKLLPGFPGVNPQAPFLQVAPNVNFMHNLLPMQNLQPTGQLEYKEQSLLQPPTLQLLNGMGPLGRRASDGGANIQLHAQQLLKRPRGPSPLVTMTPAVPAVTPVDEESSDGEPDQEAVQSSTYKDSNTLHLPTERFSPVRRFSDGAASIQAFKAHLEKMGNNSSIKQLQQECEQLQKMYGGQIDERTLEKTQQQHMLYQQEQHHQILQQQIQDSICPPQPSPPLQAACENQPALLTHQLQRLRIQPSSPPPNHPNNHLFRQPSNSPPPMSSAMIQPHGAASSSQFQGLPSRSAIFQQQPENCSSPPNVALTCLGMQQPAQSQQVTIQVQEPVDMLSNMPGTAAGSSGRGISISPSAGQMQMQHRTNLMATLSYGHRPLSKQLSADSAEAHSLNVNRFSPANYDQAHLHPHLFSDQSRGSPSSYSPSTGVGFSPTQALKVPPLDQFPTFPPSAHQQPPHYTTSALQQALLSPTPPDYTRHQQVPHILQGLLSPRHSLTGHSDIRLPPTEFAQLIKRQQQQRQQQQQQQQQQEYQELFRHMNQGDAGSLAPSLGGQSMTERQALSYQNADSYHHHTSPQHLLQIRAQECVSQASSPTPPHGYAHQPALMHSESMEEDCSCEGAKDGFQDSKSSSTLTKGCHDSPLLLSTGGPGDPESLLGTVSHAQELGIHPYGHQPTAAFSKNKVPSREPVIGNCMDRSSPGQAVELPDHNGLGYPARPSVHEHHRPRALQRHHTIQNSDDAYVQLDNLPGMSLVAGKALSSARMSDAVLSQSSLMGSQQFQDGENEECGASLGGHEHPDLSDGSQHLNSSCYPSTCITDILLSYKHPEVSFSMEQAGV
Calcium/calmodulin-dependent protein kinase type II subunit alpha, sequence (Q9UQM7 whole entry): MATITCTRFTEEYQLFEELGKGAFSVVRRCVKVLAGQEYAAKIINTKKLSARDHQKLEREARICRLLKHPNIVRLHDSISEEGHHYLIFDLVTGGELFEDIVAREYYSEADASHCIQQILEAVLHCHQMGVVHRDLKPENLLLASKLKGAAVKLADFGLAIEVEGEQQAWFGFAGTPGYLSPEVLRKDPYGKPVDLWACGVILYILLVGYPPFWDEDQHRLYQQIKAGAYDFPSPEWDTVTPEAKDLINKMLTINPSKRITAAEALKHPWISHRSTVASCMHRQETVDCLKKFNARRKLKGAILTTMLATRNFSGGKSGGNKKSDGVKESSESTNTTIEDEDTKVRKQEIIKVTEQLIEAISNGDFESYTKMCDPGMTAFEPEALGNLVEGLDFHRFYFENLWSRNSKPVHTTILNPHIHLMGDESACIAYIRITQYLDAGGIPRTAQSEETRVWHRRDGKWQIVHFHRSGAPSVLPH

Cc1cc(F)c(C(=O)Nc2cccc(-c3nncn3C(C)C)n2)cc1-n1cnc(C2CC2)c1
% of control [1]: 100%

Cn1cc(-n2cnc3c(NCc4nc5cc(Cl)c(Cl)cc5[nH]4)nc(N4CCOCC4)nc32)cn1
% of control [2]: 7.02%

Cc1cc([C@@H](C)Nc2ccccc2C(=O)O)c2nc(N3CCOCC3)cc(=O)n2c1 [AZD-6482]
% of control [3]: 63%

Cc1cnc(Nc2ccc(F)cc2Cl)nc1-c1c[nH]c(C(=O)N[C@H](CO)c2cccc(Cl)c2)c1
% of inhibition [4]: 3% | % of inhibition [5]: 1%

COCCN1CCC(c2cc(CN(C)C(=O)c3cccc(Oc4ccccc4)c3)ccn2)CC1
% activity ([6]; at 1 µM): > 95% | % activity ([6]; at 10 µM): > 85%

CNC(=O)Nc1ccc(-c2nc(N3CC4CCC(C3)O4)c3cnn(C4CCC5(CC4)OCCO5)c3n2)cc1
% of control [7]: 98%

CCN(CC)CCCCNc1ncc2cc(-c3cc(OC)cc(OC)c3)c(NC(=O)NC(C)(C)C)nc2n1
% of control [8]: 100%

CCC(=O)N1CCN(c2ccc(-n3c(=O)ccc4cnc5ccc(-c6cnc7ccccc7c6)cc5c43)cc2C(F)(F)F)CC1
% of control [9]: 59%

CN(C)C/C=C/C(=O)Nc1ccc(C(=O)N2CCCC(Nc3ncc(Cl)c(-c4c[nH]c5ccccc45)n3)C2)cc1 (stereo unspecified)
% of control [10]: 70%
